Data from US7713994B2 (Wyeth LLC, priority 2005, dated 2010).
Like-named read-outs stand apart in the source and are kept apart here.

How the values were obtained:
cyclin D1/cdk 4 enzyme = target: T1, cyclin D1/cdk 4 enzyme (Homo sapiens, UniProt P11802); assay: CDK4 ELISA kinase assay (phospho-Rb ser 795 detection); assay type: biochemical
T1 construct: made in house; host or cells: Sf9 insect cells, recombinant baculovirus
In short: (§1)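 Sf9-derived cyclin/CDK, 200 μM ATP, immobilized GST-Rb; 30° C/1 h. Detection: phospho-Ser795 Ab, HRP, TMB, OD450.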

cyclin E/CDK2 enzyme = target: T2, cyclin E/CDK2 enzyme (Homo sapiens, UniProt P24941); assay: CDK2 ELISA kinase assay (phospho-Rb ser 795 detection); assay type: biochemical
T2 construct: made in house; host or cells: Sf9 insect cells, recombinant baculovirus
In short: as §1

cyclin B/CDK1 enzyme = target: T3, cyclin B/CDK1 enzyme (Homo sapiens, UniProt P06493); assay: CDK1 ELISA kinase assay (phospho-Rb ser 795 detection); assay type: biochemical
T3 construct: purchased New England BioLabs; host or cells: Sf9 insect cells, recombinant baculovirus
In short: as §1

BT474 = assay: Cytotoxicity assay (SRB), BT474; assay type: cell-based; conditions: BT474 cells, 6 days, SRB, read-out: In Vitro Cellular Activity IC50 BT474
In short: (§2)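 Protein staining with sulforhodamine B after cold TCA fixation served as the survival endpoint (A540, relative to untreated cells). Before staining, cells were incubated with compound at 37 °C, 7% CO2 for 3 days, or 6 days for BT474.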

HCT-116 = assay: Cytotoxicity assay (SRB), HCT-116; assay type: cell-based; conditions: HCT116 cells, 3 days, SRB, read-out: In Vitro Cellular Activity IC50 HCT116
In short: as §2

LoVo = assay: Cytotoxicity assay (SRB), LoVo; assay type: cell-based; conditions: LoVo cells, 3 days, SRB, read-out: In Vitro Cellular Activity IC50 LOVO
In short: as §2

MCF-7 = assay: Cytotoxicity assay (SRB), MCF-7; assay type: cell-based; conditions: MCF-7 cells, 3 days, SRB, read-out: In Vitro Cellular Activity IC50 MCF-7
In short: as §2

[1] = In Vitro Enzyme Assays, 200 μM ATP, read-out: CDK4 IC50
[2] = In Vitro Enzyme Assays, read-out: CDK2 IC50
[3] = In Vitro Enzyme Assays, read-out: CDK1 IC50
[4] = In Vitro Enzyme Assay, cyclin D1/cdk 4, read-out: CDK4 IC50
[5] = In Vitro Enzyme Assay, cyclin E/CDK2, read-out: CDK2 IC50
[6] = In Vitro Enzyme Assay, cyclin B/CDK1, read-out: CDK1 IC50

T1 sequence (P11802 whole entry, species assumed): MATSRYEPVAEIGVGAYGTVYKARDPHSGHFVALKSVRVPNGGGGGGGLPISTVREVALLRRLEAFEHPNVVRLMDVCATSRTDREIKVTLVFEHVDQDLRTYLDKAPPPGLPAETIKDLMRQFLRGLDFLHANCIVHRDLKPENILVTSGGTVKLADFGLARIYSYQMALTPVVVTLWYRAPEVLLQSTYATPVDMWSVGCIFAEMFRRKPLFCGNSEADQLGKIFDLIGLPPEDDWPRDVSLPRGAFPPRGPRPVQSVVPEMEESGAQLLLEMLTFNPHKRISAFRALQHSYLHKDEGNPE
T1 sequence (P24385 whole entry partner, species assumed): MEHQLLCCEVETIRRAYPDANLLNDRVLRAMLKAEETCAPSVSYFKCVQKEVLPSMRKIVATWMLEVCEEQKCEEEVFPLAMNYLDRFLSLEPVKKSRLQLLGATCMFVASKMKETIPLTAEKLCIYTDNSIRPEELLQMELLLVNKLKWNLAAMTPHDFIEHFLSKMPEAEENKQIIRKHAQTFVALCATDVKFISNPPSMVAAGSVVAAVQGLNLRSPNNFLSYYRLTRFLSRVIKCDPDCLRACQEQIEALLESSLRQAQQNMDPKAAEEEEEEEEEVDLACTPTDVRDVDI
T3 sequence (P06493 whole entry): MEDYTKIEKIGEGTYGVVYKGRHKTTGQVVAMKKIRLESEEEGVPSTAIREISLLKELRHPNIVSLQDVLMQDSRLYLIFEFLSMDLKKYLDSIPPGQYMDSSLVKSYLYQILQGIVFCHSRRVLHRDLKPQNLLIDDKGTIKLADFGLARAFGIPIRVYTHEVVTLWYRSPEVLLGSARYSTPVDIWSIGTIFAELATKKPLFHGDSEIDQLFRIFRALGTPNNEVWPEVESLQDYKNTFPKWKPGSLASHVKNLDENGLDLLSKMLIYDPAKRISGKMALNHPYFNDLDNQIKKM
T3 sequence (P14635 whole entry partner): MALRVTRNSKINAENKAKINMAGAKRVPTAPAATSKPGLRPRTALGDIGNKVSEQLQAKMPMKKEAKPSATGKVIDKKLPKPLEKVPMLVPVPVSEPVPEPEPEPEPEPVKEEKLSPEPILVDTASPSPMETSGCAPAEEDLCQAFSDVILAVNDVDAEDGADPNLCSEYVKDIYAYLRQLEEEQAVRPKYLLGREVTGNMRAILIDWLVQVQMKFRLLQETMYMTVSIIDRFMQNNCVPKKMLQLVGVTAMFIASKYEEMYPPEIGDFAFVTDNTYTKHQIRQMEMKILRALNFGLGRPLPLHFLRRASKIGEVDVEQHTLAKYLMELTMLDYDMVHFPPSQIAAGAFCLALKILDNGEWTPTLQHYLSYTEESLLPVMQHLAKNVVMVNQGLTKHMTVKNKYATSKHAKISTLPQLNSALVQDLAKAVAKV

Row | Compound | IC50 (cyclin D1/cdk 4 enzyme; [1]) [nM] | IC50 (cyclin E/CDK2 enzyme; [2]) [µM] | IC50 (cyclin B/CDK1 enzyme; [3]) [µM] | IC50 (BT474; Homo sapiens, BT-474, 144 h) [µM] | IC50 (HCT-116; Homo sapiens, HCT-116, 72 h) [nM] | IC50 (LoVo; Homo sapiens, LoVo, 72 h) [µM] | IC50 (MCF-7; Homo sapiens, MCF7, 72 h) [µM] | IC50 (cyclin D1/cdk 4 enzyme; [4]) [nM] | IC50 (cyclin E/CDK2 enzyme; [5]) [µM] | IC50 (cyclin B/CDK1 enzyme; [6]) [µM] | IC50 (BT474) [µM] | IC50 (HCT-116) [nM] | IC50 (LoVo) [µM] | IC50 (MCF-7) [µM]
1 | CN1CCN(c2ccc(N/C=C3\C(=O)NC(=O)c4ccc(-c5coc(CN6CCCC6)c5)cc43)nc2)CC1 [Example 449, (4Z)-4-({[5-(4-Methylpiperazin-1-yl)pyridin-2-yl]amino}methylene)-6-[5-(pyrrolidin-1-ylmethyl)-3-furyl]isoquinoline-1,3(2H,4H)-dione] | 3600 | > 50 | > 50 | 8.1 | 2600 | 2.2 | 3.5 | – | – | – | – | – | – | –
2 | CN1CCCC1c1ccc(N/C=C2\C(=O)NC(=O)c3ccc(-c4cccs4)cc32)cc1 (stereo not drawn) [Example 450, 4-{[4-(1-Methyl-pyrrolidin-2-yl)-phenylamino]-methylene}-6-thiophen-2-yl-4H-isoquinoline-1,3-dione] | 180 | > 50 | > 50 | 1.9 | 2500 | 2.8 | 2.5 | – | – | – | – | – | – | –
3 | CN1CCCC1c1ccc(N/C=C2\C(=O)NC(=O)c3ccc(-c4ccoc4)cc32)cc1 (stereo not drawn) [Example 451, 6-Furan-3-yl-4-{[4-(1-methyl-pyrrolidin-2-yl)-phenylamino]-methylene}-4H-isoquinoline-1,3-dione] | 60 | > 50 | > 50 | 1 | 2800 | 2.5 | 1 | – | – | – | – | – | – | –
4 | Cn1ccc(CN/C=C2\C(=O)NC(=O)c3ccc(I)cc32)cc1=O [Example 453, (4Z)-6-Iodo-4-({[(1-methyl-2-oxo-1,2-dihydropyridin-4-yl)methyl]amino}methylene)isoquinoline-1,3(2H,4H)-dione] | 60 | 1 | 12.6 | 4 | 3700 | 3.3 | 4.3 | – | – | – | – | – | – | –
5 | CN(C)CC1CCN(c2ccc(N/C=C3\C(=O)NC(=O)c4ccc(I)cc43)cc2)CC1 [Example 454, (4Z)-4-{[(4-{4-[(Dimethylamino)methyl]piperidin-1-yl}phenyl)amino]methylene}-6-iodoisoquinoline-1,3(2H,4H)-dione] | 360 | > 50 | > 50 | 10.5 | 7400 | 10.5 | 11.5 | – | – | – | – | – | – | –
6 | CN1CCC(N(C)CC2CCN(c3ccc(N/C=C4\C(=O)NC(=O)c5ccc(I)cc54)cc3)CC2)C1 (stereo not drawn) [Example 455, (4Z)-6-Iodo-4-({[4-(4-{[methyl(1-methylpyrrolidin-3-yl)amino]methyl}piperidin-1-yl)phenyl]amino}methylene)isoquinoline-1,3(2H,4H)-dione] | 5000 | > 50 | > 50 | 3.1 | 2400 | 3.3 | 3.1 | – | – | – | – | – | – | –
7 | CCNCC1CCN(c2ccc(N/C=C3\C(=O)NC(=O)c4ccc(I)cc43)cc2)CC1 [Example 456, (4Z)-4-{[(4-{4-[(Ethylamino)methyl]piperidin-1-yl}phenyl)amino]methylene}-6-iodoisoquinoline-1,3(2H,4H)-dione] | – | – | – | 9.2 | 2700 | 8.3 | 11 | 470 | > 50 | > 50 | – | – | – | –
8 | CN1CCN(c2ccc(N/C=C3\C(=O)NC(=O)c4ccc(-c5ccoc5)cc43)c(F)n2)CC1 [Example 457, (4Z)-4-({[2-Fluoro-6-(4-methylpiperazin-1-yl)pyridin-3-yl]amino}methylene)-6-(3-furyl)isoquinoline-1,3(2H,4H)-dione] | – | – | – | – | – | – | – | 190 | 19.4 | 24.2 | 1.6 | 960 | 1 | 2.1
9 | O=C1NC(=O)c2ccc(I)cc2/C1=C/Nc1ccc(C2CCCN2)cc1 (stereo not drawn) [Example 462, 6-Iodo-4-[(4-pyrrolidin-2-yl-phenylamino)-methylene]-4H-isoquinoline-1,3-dione] | – | – | – | 4.8 | 2600 | 3.6 | 3.5 | 420 | > 50 | > 50 | – | – | – | –
